Experimental data taken from patent US20230241073A1, “PHARMACEUTICAL COMPOSITION FOR PREVENTING OR TREATING NON-SMALL CELL LUNG CANCER ASSOCIATED WITH RON MUTANTATION, AND METHOD USING SAME” (WELLMARKER BIO CO., LTD., priority 2020, published 2023).
Structures can show the parent of a compound that is named as a salt.

How the values were obtained:
[1] = tested on: NCI-H358 (mRONΔ155) non-small cell lung cancer cell line transplanted mouse model; test: Tumor growth inhibition in NCI-H358 transplanted animal model; assay type: in vivo; details: NCI-H358 xenograft, orally once a day for 38 days
Description: (§1) It was confirmed whether tumor growth was inhibited by administering Example 1 (WM-S1-030) at a dose of 3 mpk, 10 mpk and 30 mpk to a mouse model transplanted with NCI-H358, which is a non-small cell lung cancer cell line of a mutation RONΔ155 type. Specifically, 5-week-old female BALB/c-nude mice were purchased and acclimatized for 1 week. Thereafter, NCI-H358 (5×10^6 cells/mouse), a non-small cell lung cancer cell line of a mutation RONΔ155 type, was diluted in PBS and Matrigel, and 200 μL was injected subcutaneously into the right dorsal side of the mouse. When the size of the tumor reached about 100 mm^3, the negative control (excipient) and Example 1 were orally administered. The drug was administered once a day for 38 days, and the tumor size and body weight were measured twice a week. After the drug administration was completed, the mice were euthanized, the tumor was extracted, and the weight was measured.

[2] = tested on: A549 (mRONΔ155) non-small cell lung cancer cell line transplanted mouse model; test: Tumor growth inhibition in A549 transplanted animal model; assay type: in vivo; details: A549 xenograft, 50 mg/kg, orally once a day for 3 weeks
Description: as §1, with “50” for “3 mpk, 10 mpk and 30”, “A549,” for “NCI-H358,”, “A549” for “NCI-H358”, “PBS (phosphate buffered saline),” for “PBS”, “100” for “Matrigel, and 200”, “3 weeks,” for “38 days,”

[3] = tested on: pTyr-mRON, cleaved caspase 3, cyclin D1 in NCI-H460 (mRONΔ165) tumor; test: Protein expression change by immunochemical staining of tumor tissue, NCI-H460 transplanted animal model; assay type: in vivo, mouse; details: 30 mpk, 50 mpk, FIG. 6
Description: (§2) Example 1 (WM-S1-030) was administered at each concentration (30 mpk, 50 mpk) and positive control 1 was administered at a dose of 50 mpk to a mouse model transplanted with NCI-H460, which is a non-small cell lung cancer cell line of a mutation RONΔ165 type, and then the tumor was extracted, and the expression changes of the proteins were analyzed by immunochemical staining.
(§3) Specifically, paraffin slides were prepared using tissues isolated from the sacrificed mice. The tissue sections were deparaffinized and rehydrated, immersed in the target recovery buffer 1×(ScyTek Laboratories, Cat #CBB999) and heated for 15 minutes to perform an antigen recovery process. After the reaction, the tissue sections were washed in Tris buffered saline-0.05% Tween 20 (TBS-T)(T&I, BTT-9310) for 5 minutes, and then the reaction was performed with a non-specific antibody response blocking reagent (vector, SP-5035) for 1 hour.
(§4) The tissue sections were cultured at 4° C. overnight with mRON (Abcam, ab52927, 1:50), pTyr-mRON (Mybioscience, MBS462024, 1:100), cleaved caspase 3 (Asp175)(R&D Systems, MAB835, 1:50), cyclin D1 (cyclin D1 (SP4), #Z2027RS, 1:100) and then washed with TBS-T for 5 minutes, and then endogenous peroxidase activity was blocked using a peroxidase blocking reagent (Cellmarque, 925B-05). Thereafter, the tissue sections were washed with TBS-T for 5 minutes and then incubated with a rabbit secondary antibody (vector, PK-6101) at room temperature for 1 hour. The tissue sections were washed with TBS-T for 5 minutes and then colored with diaminobenzidine (cat #SK-4100). In order to stain the nuclei of the tissues, they were stained with hematoxylin (ScyTek Laboratories, HMM999) for 1 minute, dehydrated, and then encapsulated.

[4] = tested on: NCI-H1944 non-small cell lung cancer cell line of a mutation RONΔ155 type; test: MTS assay, cell growth inhibitory ability, NCI-H1944; assay type: cell-based; details: Homo sapiens; NCI-H1944, RON mutation Δ155, 72 hours
Description: (§5) In order to compare and confirm the cell growth inhibitory ability of Examples 1 (WM-S1-030) to 5, positive control 1 (BMS-777607) and positive control 2 (AMG-510) in four non-small cell lung cancer cell lines of a mutation RONΔ155 type (Calu-6, A549, NCI-H358, NCI-H1944), MTS assay was carried out.
(§6) For MTS assay, 1,000 cells of each non-small cell lung cancer cell line per well were seeded in a 96-well-plate, and 24 hours later, treated with the compounds of Examples 1 to 5, positive control 1 and positive control 2 at various concentrations ([…]) in 100 μL of 10% FBS-RPMI medium (Welgene) per each well. Thereafter, the cells were cultured for 72 hours, and then 20 μL of MTS solution (Promega) was added and cultured for 2 hours, and then absorbance was measured at 490 nm. The cytotoxicity was analyzed by deriving the IC50 for the compounds of Examples 1 to 5, positive control 1 and positive control 2 using GraphPad Prism™ 5.

[5] = tested on: Calu-6 non-small cell lung cancer cell line of a mutation RONΔ155 type; test: MTS assay, cell growth inhibitory ability, Calu-6; assay type: cell-based; details: Homo sapiens; Calu-6, RON mutation Δ155, 72 hours
Description: as §5, §6

[6] = tested on: A549 non-small cell lung cancer cell line of a mutation RONΔ155 type; test: MTS assay, cell growth inhibitory ability, A549; assay type: cell-based; details: Homo sapiens; A549, RON mutation Δ155, 72 hours
Description: as §5, §6

[7] = tested on: pTyr-mRON, cleaved caspase 3, cyclin D1 in NCI-H358 (mRONΔ155) tumor; test: Protein expression change by immunochemical staining of tumor tissue, NCI-H358 transplanted animal model; assay type: in vivo, mouse; details: 3 mpk, 10 mpk, 30 mpk, FIG. 4
Description: as §2, with “(3” for “(30”, “10 mpk, 30” for “50”, “mpk)” for “mpk) and positive control 1 was administered at a dose of 50 mpk”, “NCI-H358,” for “NCI-H460,”, “RONΔ155” for “RONΔ165”
as §3
as §4, with “MAB835, 1:50), and cyclin D1” for “MAB835, 1:50), cyclin D1”

[8] = tested on: NCI-H460 (mRONΔ165) non-small cell lung cancer cell line transplanted mouse model; test: Tumor growth inhibition in NCI-H460 transplanted animal model; assay type: in vivo; details: NCI-H460 xenograft, 50 mg/kg, once a day for 2 weeks
Description: as §1, with “50” for “3 mpk, 10 mpk and 30”, “NCI-H460,” for “NCI-H358,”, “RONΔ165” for “RONΔ155”, “NCI-H460 (2×10^6” for “NCI-H358 (5×10^6”, “administered. In this case, positive control 1 (BMS-777607) was administered at a dose of 50 mpk.” for “administered.”, “2 weeks,” for “38 days,”

[9] = tested on: NCI-H358 non-small cell lung cancer cell line of a mutation RONΔ155 type; test: MTS assay, cell growth inhibitory ability, NCI-H358; assay type: cell-based; details: Homo sapiens; NCI-H358, RON mutation Δ155, 72 hours
Description: as §5, §6

[10] = tested on: A549 non-small cell lung cancer cell line of a mutation RONΔ155 type; test: Cell killing efficacy, trypan blue exclusion assay, A549; assay type: cell-based; details: A549, 1 μM, 48 hours, FIG. 1
Description: (§7) A549 and NCI-H358, which are non-small cell lung cancer cell lines of a mutation RONΔ155 type, were dispensed, and 24 hours later, treated with 1 μM of the compounds of Examples 1 (WM-S1-030) to 5, positive control 1 (BMS-777607) and positive control 2 (AMG-510), respectively, while replacing the medium. After 48 hours, the cells and the cell fluid were harvested (1500 rpm, 4 min), and live cells and dead cells were quantified through trypan blue (15250-061, Gibco) exclusion assay. Statistical analysis was performed using T-test in Excel.

[11] = tested on: NCI-H358 non-small cell lung cancer cell line of a mutation RONΔ155 type; test: Cell killing efficacy, trypan blue exclusion assay, NCI-H358; assay type: cell-based; details: NCI-H358, 1 μM, 48 hours, FIG. 1
Description: as §7

IC50 [4]	IC50 [5]	IC50 [6]	IC50 [9]	SMILES	Tumor growth inhibition rate (TGI, %) ([1]; 3 mg/kg)	Tumor growth inhibition rate (TGI, %) ([1]; 10 mg/kg)	Tumor growth inhibition rate (TGI, %) ([1]; 30 mg/kg)	Tumor growth inhibition rate (TGI, %) [2]	expression of cleaved caspase 3 [3]	expression of cyclin D1, a PD marker [3]	expression of pTyr-mRON [3]	expression of cleaved caspase 3 [7]	expression of cyclin D1, a PD marker [7]	expression of pTyr-mRON [7]	Tumor growth inhibition rate (TGI, %) [8]	Cell killing efficacy (cell death) [10]	Cell killing efficacy (cell death) [11]
1.62 µM	0.72 µM	2.02 µM	1.27 µM	CCOc1ccn(-c2ccc(F)cc2)c(=O)c1C(=O)Nc1ccc(Oc2ccnc3cc(-c4ccc(CN5CCOCC5)cn4)sc23)c(F)c1.Cl [Example 1, 4-ethoxy-N-[3-fluoro-4-({2-[5-(morpholinomethyl)pyridin-2-yl]thieno[3,2-b]pyridin-7-yl}oxy)phenyl]-1-(4-fluorophenyl)-2-oxo-1,2-dihydropyridine-3-carboxamide hydrochloride]	12.3 ± 13.8%	64.5 ± 6.2%	91.0 ± 2.3%	58.9 ± 3.8%	induced	decreased	decreased	induced	decreased	decreased	69.7 ± 5.4%	–	–
> 10 µM	7.29 µM	1.94 µM	9.11 µM	CCOc1ccn(-c2ccccc2)c(=O)c1C(=O)Nc1ccc(Oc2ccnc3cc(-c4ccc(CNCCOC)cn4)sc23)c(F)c1 [Example 2, 4-ethoxy-N-(3-fluoro-4-{[2-(5-{[(2-methoxyethyl)amino]methyl}pyridin-2-yl)thieno[3,2-b]pyridin-7-yl]oxy}phenyl)-2-oxo-1-phenyl-1,2-dihydropyridine-3-carboxamide hydrochloride]	–	–	–	–	–	–	–	–	–	–	–	–	–
2.16 µM	1.55 µM	0.61 µM	2.61 µM	CCOc1ccn(-c2ccccc2)c(=O)c1C(=O)Nc1ccc(Oc2ccnc3cc(-c4ccc(CN5CCN(C)CC5)cn4)sc23)c(F)c1 [Example 3, hydrochloride]	–	–	–	–	–	–	–	–	–	–	–	–	–
0.6 µM	0.85 µM	0.37 µM	0.89 µM	COc1cc2c(Oc3ccc(NC(=O)c4c5c(cn(-c6ccc(F)cc6)c4=O)CCO5)cc3F)ccnc2cc1OCCN1CCOCC1 [Example 4, N-(3-fluoro-4-{[6-methoxy-7-(2-morpholinoethoxy)quinolin-4-yl]oxy}phenyl)-5-(4-fluorophenyl)-6-oxo-2,3,5,6-tetrahydrofuro[3,2-c]pyridine-7-carboxamide]	–	–	–	–	–	–	–	–	–	–	–	–	–
0.31 µM	1.33 µM	0.19 µM	0.27 µM	COc1cc2c(Oc3ccc(NC(=O)c4c5c(cn(-c6ccc(F)cc6)c4=O)CCO5)cc3F)ccnc2cc1OCCCN1CC(C#N)C1 [Example 5, N-[4-({7-[3-(3-cyanoazetidin-1-yl)propoxy]-6-methoxyquinolin-4-yl}oxy)-3-fluorophenyl]-5-(4-fluorophenyl)-6-oxo-2,3,5,6-tetrahydrofuro[3,2-c]pyridine-7-carboxamide]	–	–	–	–	–	–	–	–	–	–	–	–	–
> 10 µM	> 10 µM	> 10 µM	> 10 µM	CCOc1ccn(-c2ccc(F)cc2)c(=O)c1C(=O)Nc1ccc(Oc2ccnc(N)c2Cl)c(F)c1 [Positive control 1, N-{4-[(2-amino-3-chloro-4-pyridinyl)oxy]-3-fluorophenyl}-4-ethoxy-1-(4-fluorophenyl)-2-oxo-1,2-dihydro-3-pyridinecarboxamide, reference compound]	–	–	–	–	–	–	–	–	–	–	26.1 ± 1.7%	response to the drug was low	response to the drug was low
> 10 µM	> 10 µM	> 10 µM	0.05 µM	C=CC(=O)N1CCN(c2nc(=O)n(-c3c(C)ccnc3C(C)C)c3nc(-c4c(O)cccc4F)c(F)cc23)[C@@H](C)C1 [Positive control 2, reference compound]	–	–	–	–	–	–	–	–	–	–	–	response to the drug was low	response to the drug was low
